In patent publication US5696276A, “Process for preparing 5,8-dihydroxynaphthoquinone derivatives, novel 5,8-dihydroxynaphthoquinone derivatives and their use as anticancer agent” (Kuhnil Pharmaceutical Co., Ltd., priority 1993, dated 1997):
In brackets after ≈: the same amount, converted by molar mass.

Tests used:
L1210 cells = test: Cytotoxic activity against L1210 cells; type: cell-based; settings: Mus musculus; L1210 cells, 48 hours, 37° C.; read-out: ED50, cytotoxic activity against L1210
Method: To obtain L1210 cells in a logarithmic phase for cytotoxic activity test, in a 250 ml Erlenmeyer flask with a screw cap including Fisher medium warmed to 36° to 37° C. L1210 cells were adjusted to a concentration of 2-3×10^5 cells/ml and then cultured, before 24 hours from the beginning of experiment. Then, the culture solution thus obtained was suspended to prepare a L1210 cell suspension having a concentration of about 0.8-1.0×10^6 cells/ml. Test sample was dissoved in ethanol or dimethylsulfoxide in a certain concentration just before the experiment. 0.1 ml of the sample solution was diluted 10 times with 0.9 ml of a fresh medium. To each screw-capped test tube were added 100, 50, 25 μl, respectively, of the sample dilutions and then added 5 ml of the cell suspension (5×10^4 cells/ml) prepared above to use as the test group. To the test tubes for the control group (2√n: n=number of the samples), only 5 ml of the cell suspension was added. All test tubes were cultured for 48 hours in a CO2 incubator at 37° C. and then the number of cells was counted using a haemacytometer.
(§1) The ED50 value is defined as a concentration (μg/ml) of the sample which inhibits the growth of cancer cells by 50% of the control group and determined according to a method described in NIC's mannual (NIC=National Cancer Institue, U.S.A.). The growth rate Y(%) of cells in the presence of the test sample in each concentration was calculated according to the followign equation: […]
(§2) In the above equation, T means the average cell number per ml in the test group after incubation for 48 hours in the presence of the test samples in each concentration, C means the average cell number per ml in the control group after incubation for 48 hours, and Co means the average cell number per ml in the control group at the beginning of incubation. The Y(%) value at each concentration and log10 value of each concentration were obtained and the regression curve was constructed according to the following equation from those obtained values. In this case, when all the Y(%) value obtained at each concentration is greater than 55% or lower than 45%, the experiment was repeatedly conducted.
(§3) To construct the regression curve Y=A+BX the values A and B were obtained using the following equation. [formula]
(§4) In the above, the value N is the number of selected points which is greater than 2 and lower than, or identical with, the number of cencentration of the test sample, Xi is log(concentration) i, and Yi is the growth ratio at (concentration)i. The value of ED50 was obtained for those obtained slope and intercept.

A549 cancer cells = test: Cytotoxic activity against A549 cancer cells (sulforhodamin B method); type: cell-based; settings: Homo sapiens; A549 cells, SRB method, 48 hours; read-out: ED50, cytotoxic activity against A549
Method: The cytotoxic activity against A549 cancer cells was determined using a method for measuring sulforhodamin B (SRB), which was developed in the year 1989 by NIC for measuring anticancer activity of the drug in vitro. For the experiment, cells under subculturing were separated from the attached surface with trypsin-CDTA solution and then dispensed into a 24-well flat-bottom microplate (Falcon) so that the number of cells per well is 8×10^4 (A549). The microplate was incubated in a CO2 incubator for 24 hours to attach the dispensed cells to bottom. The medium was removed with aspirator. Then, 100 μl of the solution of the test compounds diluted in a log-dose of 6 kinds of concentration was added to each well containing cells, in a multiple of 3. The microplate was incubated for further 48 hours. In addition, the diluted solution of the test compounds above was filtered through a 0.22 μm filter, before addition to the cells, to keep the experiment under sterilized condition. The cells were incubated with the test compounds for 48 hours and then the medium was removed from each well. 100 μl of 10% trichloroacetic acid (TCA) was added to each well and then the plate was allowed to stand at 4° C. for one hour to fix the cells to the bottom of plate. After fixing the cells, the plate was washed 5 to 6 times with water to completely remove any remaining TCA solution and then dried at room temperature until water is no longer present. To the completely dried plate was added the dying solution of 0.4% SRB dissolved in 1% acetic acid in an amount of 250 μl per well to stain the cells for 30 minutes and then the plate was washed again 5 to 6 times with 1% acetic acid solution to remove the remaining SRB which is not bound to the cells. The stained cell plate was dried again at room temperature. Then, the dying solution was carefully dissolved in a certain amount of 10 mM Tris so that the O.D. value in the control group at 520 nm is 0.8-1.0 Å (optical density), and the optical density at 520nm was determined. The ED50 value was obtained from the determined optical density. To calculate the activity of the drug against cancer cells, the number of cells (Tz) at the beginning of the addition of drug, the number of cells (C) after incubation with the medium in the absence of drug for 48 hours and the number of cells (T) after incubation in the presence of drugs at each concentration for 48 hours were determined.
The anticancer activity of the test compounds was determined form the following equations. Specifically, in the […] the equation (T-Tz)/(C-Tz)×100 was used and in the case of Tz<T the equation (T-Tz)/Tz×100 was used. Then the IC50 value wich is the concentration of drug which inhibits the growth of cancer cells by 50% was calcualted from the above calculated values using a data regressive function of LOTUS programme and the cytotoxic activities of the test compounds were compared with each other.

S-180 sarcoma cells = test: Animal experiment using Sarcoma S-180 cells (survival of mouse); type: in vivo, male ICR mouse; settings: ip, S-180 ICR mouse, intraperitoneal, 7 to 8 injections; for responders at 15 µmol/kg / responders at 10 µmol/kg: 1200 h, read-out: Number of mouse survived for 50 days (converted); for responders at 15 µmol/kg / response vs control in vivo at 15 µmol/kg: daily dose 15 μmole (mg/kg/day given per compound); for response vs control in vivo at 15 µmol/kg / response vs control in vivo at 10 µmol/kg: read-out: T/C; for responders at 10 µmol/kg / response vs control in vivo at 10 µmol/kg: daily dose 10 μmole (mg/kg/day given per compound)
Method: In this experiment, healthy male ICR mouse weighing 20 to 25 g were used as test animal and were fed with water and feed without any restriction in the chamber controlled at the temperature of 23° to 24° C. As the feed, the antibiotic-free feed for mouse was used.
S-180 cells which were incubated for 7 days within abdominal cavity of ICR mouse were separated together with ascites. To the separated cells was added sterilized cold physiological saline and the mixture was centrifuged with 400×g for 2 minutes to separate the cell precipitate. The separated cell precipitate was suspended again in sterilized cold physiological saline and then centrifuged to remove the supernatant. Only S-180 cells were taken, excluding any red bllod cells incorporated therein, washed three times with the same method as above, and then suspended to obtain the cell suspension in concentration of 10^7 cells/ml by counting the number of cells with a haemacytometer. Each 0.1 ml of this cell suspension was transplanted in an abdominal cavity.
After 24 hours from the transplantation, mouse were divided so that each group contains 8 to 9 mouse. The test sample was dissolved in a predetermined amount of dimethylsulfoxide to prepare the stock solution which was stored at 4° C. 30 μl of the stock solution was taken and then mixed with 1.5 ml of physiological saline. 0.1 ml of this mixture was intraperitoneally injected to the test animal. To the control group, 2% dimethylsulfoxide-physiological saline solution was injected. Meanwhile, doxorubicin which is used as the comparative drug was dissolved in 2% dimethylsulfoxide-physiological saline solution and then injected in an amount of 0.5 mg(titer)/kg. The schedule for injection comprises a total of 7 to 8 injections in the manner that after the transplantation of cancer cells 0.1 ml of the test sample per a day is administered for 2 to 4 days followed by the rest for one day. The survival rate was calculated on the basis of the date on which all of one control group is died (approximately 18 to 20 days). The survival rate (T/C, %) was calculated by the following equation as proposed in NIC's protocol: [formula]

HL-60 cells = test: Cytotoxic activity against HL-60 cells; type: cell-based; settings: Homo sapiens; HL-60 cells, 48 hours, 37° C.; read-out: ED50, cytotoxic activity against HL-60
Method: (§5) As in the test for the cytotoxic activity against L1210 cells, the test samples were dissoved in ethanol or dimethylsulfoxide in a certain concentration. 0.1 ml of the sample solution was mixed with 0.9 ml of a fresh medium to prepare the dilutions. To each two test tubes having a screw cap were added 100, 50, 25 μl, respectively, of the sample dilutions by means of a micropipet. To each test tube for the test group and the control group (2√n: n=number of the samples) was added 5 ml of the dilutions of HL-60 cells and K-562 cells which were cultured and activated before 24 hours from the beginning of experiment and then diluted in a concentration of 1×10^5 cells/mi. All test tubes were cultured for 48 hours in a CO2 incubator at 37° C. and then the number of cells was counted using a haemacytometer.
as §1, §2, §3, §4

K-562 cells = test: Cytotoxic activity against K-562 cells; type: cell-based; settings: Homo sapiens; K562 cells, 48 hours, 37° C.; read-out: ED50, cytotoxic activity against K562
Method: as §5, §1, §2, §3, §4

Row | Compound | IC50 (L1210 cells) [µg/mL] | IC50 (A549 cancer cells) [µg/mL] | responders at 15 µmol/kg (S-180 sarcoma cells) [%] | response vs control in vivo at 15 µmol/kg (S-180 sarcoma cells) [%] | IC50 (HL-60 cells) [µg/mL] | responders at 10 µmol/kg (S-180 sarcoma cells) [%] | response vs control in vivo at 10 µmol/kg (S-180 sarcoma cells) [%] | IC50 (K-562 cells) [µg/mL]
1 | CCCCCCCCCCCC(=O)OC(CC=C(C)C)C1=CC(=O)c2c(O)ccc(O)c2C1=O (centres unmarked) | 0.7 (≈ 1.49 µM) | > 20 | 0 | 110 | 1 (≈ 2.12 µM) | – | – | –
2 | CCCCCCCC/C=C\CCCCCCCC(=O)OC(CC=C(C)C)C1=CC(=O)c2c(O)ccc(O)c2C1=O (centres unmarked) | 2.4 (≈ 4.34 µM) | > 20 | 0 | 130 | 9.6 (≈ 17.4 µM) | – | – | –
3 | CCCCCCCCCCCCCCCCCC(=O)OC(CC=C(C)C)C1=CC(=O)c2c(O)ccc(O)c2C1=O (centres unmarked) | 1.1 (≈ 1.98 µM) | > 20 | 0 | 110 | 10 (≈ 18 µM) | – | – | –
4 | CC(C)=CCC(OC(=O)c1ccccc1)C1=CC(=O)c2c(O)ccc(O)c2C1=O (centres unmarked) [2-(1-benzoyloxy-4-methyl-3-pentenyl)-5,8-dihydroxy-1,4-naphthoquinone] | 0.1 (≈ 0.255 µM) | 2.1 (≈ 5.35 µM) | – | – | 0.1 (≈ 0.255 µM) | 0 | 135 | –
5 | CC(C)=CCC(OC(=O)C(c1ccccc1)c1ccccc1)C1=CC(=O)c2c(O)ccc(O)c2C1=O (centres unmarked) [2-(1-diphenylacetyloxy-4-methyl-3-pentenyl)-5,8-dihydroxy-1,4-naphthoquinone] | 0.2 (≈ 0.414 µM) | 6.3 (≈ 13.1 µM) | 25 | 208 | 0.4 (≈ 0.829 µM) | – | – | –
6 | CC(C)=CCC(OC(=O)C(C)C)C1=CC(=O)c2c(O)ccc(O)c2C1=O (centres unmarked) [2-(1-isobutanoyloxy-4-methyl-3-pentenyl)-5,8-dihydroxy-1,4-naphthoquinone] | 0.003 (≈ 0.00837 µM) | 1.9 (≈ 5.3 µM) | – | – | 0.2 (≈ 0.558 µM) | 12.5 | 185 | –
7 | CCC=CCC=CCC=CCCCCCCCC(=O)OC(CC=C(C)C)C1=CC(=O)c2c(O)ccc(O)c2C1=O (centres unmarked) [2-(1-linolenyloxy-4-methyl-3-pentenyl)-5,8-dihydroxy-1,4-naphthoquinone] | 1.5 (≈ 2.73 µM) | > 20 | 0 | 125 | 4.8 (≈ 8.75 µM) | – | – | –
8 | CCCCCCCC(=O)OC(CCC(C)C)C1=CC(=O)c2c(O)ccc(O)c2C1=O (centres unmarked) [2-(1-octanoyloxy-4-methylpentyl)-5,8-dihydroxy-1,4-naphthoquinone] | 0.5 (≈ 1.2 µM) | 1.7 (≈ 4.08 µM) | 0 | 131 | – | – | – | 0.6 (≈ 1.44 µM)
9 | CCCCCCCC(=O)OC(CCCCC)C1=CC(=O)c2c(O)ccc(O)c2C1=O (centres unmarked) [2-(1-octanoyloxyhexyl)-5,8-dihydroxy-1,4-naphthoquinone] | 0.2 (≈ 0.48 µM) | 2.1 (≈ 5.04 µM) | 0 | 95 | – | – | – | 0.3 (≈ 0.72 µM)
10 | CC(C)CCOC(CCC(C)C)C1=CC(=O)c2c(O)ccc(O)c2C1=O (centres unmarked) [2-[1-(3-methylbutoxy)-4-methylpentyl]-5,8-dihydroxy-1,4-naphthoquinone] | 0.2 (≈ 0.555 µM) | 1.1 (≈ 3.05 µM) | 0 | 186 | – | – | – | 0.09 (≈ 0.25 µM)
11 | CC/C=C/CC(=O)OC(CCC(C)C)C1=CC(=O)c2c(O)ccc(O)c2C1=O (stereo not drawn) [2-[1-(3-trans-hexenoyloxy)-4-methylpentyl]-5,8-dihydroxy-1,4-naphthoquinone] | 0.05 (≈ 0.129 µM) | 2.4 (≈ 6.21 µM) | – | – | – | 0 | 160 | 0.2 (≈ 0.518 µM)
12 | CC/C=C/CC(=O)OC(CCCCCCCCC)C1=CC(=O)c2c(O)ccc(O)c2C1=O (stereo not drawn) [2-[1-(3-trans-hexenoyloxy)-decyl]-5,8-dihydroxy-1,4-naphthoquinone] | 0.6 (≈ 1.36 µM) | 7.1 (≈ 16 µM) | – | – | – | 0 | 130 | 0.6 (≈ 1.36 µM)
13 | CC/C=C/CC(=O)OC(CCCCC)C1=CC(=O)c2c(O)ccc(O)c2C1=O (stereo not drawn) [2-[1-(3-trans-hexenoyloxy)-hexyl]-5,8-dihydroxy-1,4-naphthoquinone] | 0.2 (≈ 0.518 µM) | 1.5 (≈ 3.88 µM) | – | – | – | 0 | 105 | 0.2 (≈ 0.518 µM)
